The target in the experiment is Beta-secretase 1 (Homo sapiens, UniProt P56817). As to the kind of experiment: Inhibition of BACE1-mediated amyloid precursor protein cleavage after 16 hrs by chemiluminescent enzyme-fragment complementation assay.

The text below walks through data of ChEMBL document CHEMBL1914397, “Daedalols A-C, fungal-derived BACE1 inhibitors” (Bioorg Med Chem, 2011).

Beta-secretase 1, sequence (P56817 whole entry, the tested form may be a part): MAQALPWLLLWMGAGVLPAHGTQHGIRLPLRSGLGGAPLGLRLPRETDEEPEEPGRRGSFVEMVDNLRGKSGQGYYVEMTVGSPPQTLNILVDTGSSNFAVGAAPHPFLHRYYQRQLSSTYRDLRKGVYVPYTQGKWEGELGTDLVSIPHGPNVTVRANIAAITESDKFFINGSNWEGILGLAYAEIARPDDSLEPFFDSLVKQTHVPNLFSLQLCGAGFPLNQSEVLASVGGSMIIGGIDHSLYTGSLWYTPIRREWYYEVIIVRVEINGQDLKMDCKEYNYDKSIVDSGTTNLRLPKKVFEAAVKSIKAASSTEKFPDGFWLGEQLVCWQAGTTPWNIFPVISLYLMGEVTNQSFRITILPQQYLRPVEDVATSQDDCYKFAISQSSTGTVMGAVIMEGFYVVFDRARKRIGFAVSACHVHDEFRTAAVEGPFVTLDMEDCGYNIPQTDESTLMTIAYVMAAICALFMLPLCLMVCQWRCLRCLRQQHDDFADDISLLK

As to `C[C@H](CC(=O)[C@@]1([C@H](C)C(=O)O)CO1)[C@H]1CC[C@@]2(C)C3=C(CC[C@]12C)[C@@]1(C)CC[C@@H](OC(=O)CC(=O)O)C(C)(C)[C@@H]1CC3` [DAEDALOL C], the half-maximal inhibitory concentration (IC50) (in general, the concentration that gives 50% inhibition) came to 14.2 µM.
